# Key:
# KB1P organoids [1] = experiment: MTT measurement of KB1P organoid survival upon increasing doses of docetaxel; format: cell-based; settings: Mus musculus, docetaxel for 72 h
# Protocol: Breast cancer organoids were derived from K14-Cre; Brca1fl/fl; p53fl/fl mouse mammary tumors (KB1P (Kester, L., et al. Clin Cancer Res, 2022.)) and from MMTV-PyMT (Duarte, A. A., et al. Nat Methods, 2018. 15(2): p. 134-140) mouse mammary tumors. Both lines were cultured in 50 μl drops of Cultrex PathClear Reduced Growth Factor Basement Membrane Extract Type 2 (BME, Amsbio, 3533-005-02). KB1P organoids were cultured in Advanced Dulbecco's modified Eagle's medium (adDMEM/F12; Thermo Fisher Scientific. Cat. No. 12634-010) containing Hepes (10 mmol/L; Thermo Fisher Scientific, Cat. No. 15630-056), Penicillin/streptomycin (10,000 U/ml; Thermo Fisher Scientific, Cat. No. 15140-122), B27 (2% Thermo Fisher Scientific, Cat. No. 17504-044), N-acetylcysteine (1.25 mM; Sigma-Aldrich, Cat. No. A9165) and fibroblast growth factor (FGF, 12 ng/ml; Invitrogen, Cat. No. PHG0261). MMTV-PyMT organoids were cultured in DMEM/F12 GlutaMAX (Gibco, Cat. No 10565018) supplemented with 10 mmol/L Hepes (Gibco, Cat. No 15630106), Penicillin/streptomycin (10,000 U/ml; Thermo Fisher Scientific, Cat. No. 15140-122), B27 (2% Thermo Fisher Scientific, Cat. No. 17504-044) and fibroblast growth factor (FGF, 12 ng/ml; Invitrogen, Cat. No. PHG0261). […]
# Following co-culture, medium was removed, and cultures were washed in PBS to remove T cells. […] Plates were read with a 565 nm wavelength.
# mouse splenic T cells = experiment: MTT assessment of mouse splenic T cell survival following chemotherapy treatment in vitro; format: cell-based; settings: 10 nmol/L, 72 h
# Protocol: About 100,000 T cells were seeded per well in a 96-well plate and treated with
# increasing doses of docetaxel, paclitaxel, or carboplatin for 72 h. Next, T cells were incubated with Thiazolyl Blue Tetrazolium Bromide (0.5 mg/ml, Sigma Aldrich, Cat. No. 298-93-1) for 3 hr in the dark at 37 degrees Celsius. Subsequently, T cells were incubated for 16 h in the dark in a lysis buffer (40% dimerhylofrmamide, 0.55 mol/L sodium dodecyl sulfate, 2% acetic acid, 8.4 mmol/L HCl in MilliQ water). Plates were read with a 565 nm wavelength.
# KB1P organoids [2] = experiment: Co-culture of pre-treated splenic T cells with KB1P organoids (MTT, cleaved-caspase 3); format: cell-based, mouse; settings: T cells that cannot mature nor produce a TCR response
smiles,measurement,setting,value
CC(=O)O[C@@]12CO[C@@H]1C[C@H](O)[C@@]1(C)C(=O)[C@H](O)C3=C(C)[C@@H](OC(=O)[C@H](O)[C@@H](NC(=O)OC(C)(C)C)c4ccccc4)C[C@@](O)([C@@H](OC(=O)c4ccccc4)[C@H]21)C3(C)C [docetaxel],IC50,KB1P organoids [1],90.5 nM
same,killing of T cells (MTT),mouse splenic T cells,did not induce significant killing of T cells
same,T cell-mediated killing by T cells from NOD-SCID IL2rg-/- mice,KB1P organoids [2],triggered T cell-mediated killing

# Reference: patent publication US20250387481A1, “PRE-TREATED T CELLS FOR USE AS A MEDICAMENT” (STICHTING HET NEDERLANDS KANKER INSTITUUT-ANTONI VAN …, priority 2022, published 2025)
